Assay results from patent US20260242398A1, “BENZOPYRIMIDIN-4(3H)-ONES AS PI3K INHIBITORS” (OnKure, Inc., priority 2022, published 2026).
Like-named read-outs stand apart in the source and are kept apart here.

Columns and labels:
[1] = tested on: T47D cells expressing mutant PI3Ka (H1047R); experiment: In vitro cell proliferation (CellTiter-Glo, 72 hours), T47D cells; assay type: cell-based; settings: inhibition of proliferation, read-out: Avg T-47D EC50
Procedure, shortened: (§1)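 1,500 cells/well (T47D in RPMI/10% FBS/insulin 0.2 units/mL; SKBR3 in McCoys 5a/10% FBS) plated onto 10-point compound dilutions and grown 72 h at 37 °C, 5% CO2; CellTiter-Glo luminescence. Inhibition scaled between 0.1% DMSO and 10 uM alpelisib; EC50 from four-parameter logistic fit.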

[2] = tested on: SKBR3 cells express WT PI3Ka; experiment: In vitro cell proliferation (CellTiter-Glo, 72 hours), SKBR3 cells; assay type: cell-based; settings: inhibition of proliferation
Procedure, shortened: as §1

[3] = tested on: phosphorylation of AKT (pAKT) in T47D cells expressing mutant PI3Ka (H1047R); experiment: In vitro cell pAKT (Ser473) HTRF, T47D cells; assay type: cell-based; settings: inhibition of pAKT, 6 hour, read-out: Avg T-47D IC50
Procedure, shortened: (§2)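 T47D (PI3Kα H1047R; RPMI, 10% FBS, insulin) or SKBR3 (WT PI3Kα; McCoy's 5a, 10% FBS) cells, 5000/well, are treated with 10-point compound dilutions for 6 h at 37° C. Lysates are read for pAKT Ser473 by HTRF. Inhibition is normalised to DMSO (0%) and 10 μM alpelisib (100%), and IC50 comes from a four-parameter fit.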

[4] = tested on: phosphorylation of AKT (pAKT) in SKBR3 cells express WT PI3Ka; experiment: In vitro cell pAKT (Ser473) HTRF, SKBR3 cells; assay type: cell-based; settings: inhibition of pAKT
Procedure, shortened: as §2

[5] = Mouse pharmacokinetics, single IV or PO dose, plasma LC/MS/MS; assay type: in vivo; settings: CD1 mice; for PK-Mouse: PO F: PO 10 mg/kg vs IV 1 mg/kg; for AUC(0-t) / clearance: mouse, plasma; for clearance: read-out: PK-Mouse: IV Cl
Protocol: CD1 mice were dosed with a single IV or PO dose, followed by serial sampling of plasma at 0.0833 (IV only), 0.25, 0.5, 1, 2, 4, 8, 24 hours post dose. Desired serial concentrations of working solutions were achieved by diluting stock solution of analyte with 50% acetonitrile in water solution. 10 μL of working solutions (0.5, 1, 2, 5, 10, 50, 100, 500, 1000 ng/mL) were added to 10 μL of the blank Female CD1 Mouse plasma to achieve calibration standards of 0.5~1000 ng/mL (0.5, 1, 2, 5, 10, 50, 100, 500, 1000 ng/mL) in a total volume of […]. Five quality control samples at 1 ng/mL, 2 ng/mL, 5 ng/mL, 50 ng/mL and 800 ng/mL for plasma were prepared independently of those used for the calibration curves. These QC samples were prepared on the day of analysis in the same way as calibration standards. 20 μL standards, 20 μL QC samples and 20 μL unknown samples (10 μL plasma with 10 μL blank solution) were added to 200 μL of acetonitrile containing IS mixture for precipitating protein respectively. Then the samples were vortexed for 30 s. after centrifugation at 4° Celsius, 4000 rpm for 15 min. The supernatant was diluted with water at a ratio of 1:2 (V/V, 1:2), Then 5 μL of diluted supernatant was injected into the LC/MS/MS system for quantitative analysis.

[6] = IV 1 mg/kg, solution in 20% PEG400/20% PG/60% of 20% HPBCD solution in water, read-out: PK-Mouse: IV AUC last
[7] = IV 1 mg/kg, solution in 20% PEG400/20% PG/60% of 20% HPBCD solution in water
[8] = PO 10 mg/kg, suspension in 30% SBEβCD in water, read-out: PK-Mouse PO AUC last

EC50 [1] | EC50 ([2]; Homo sapiens, SK-BR-3, 72 h) | IC50 [3] | IC50 ([4]; Homo sapiens, SK-BR-3, 6 h) | PK-Mouse: PO F [5] | AUC(0-t) [5, 6] | clearance [5, 7] | AUC(0-t) [5, 8] | EC50 [2] | IC50 ([4]; 6 hour) | Compound
500 to 2000 nM | > 15000 nM | 1 to 1000 nM | > 15000 nM | 187% | 242 ng·h/mL | 59.5 mL/min/kg | 4520 ng·h/mL |  |  | CC(Nc1ccccc1C(=O)O)c1cc(F)cc2c(=O)n(C)c(N3CCN(CC(F)(F)F)CC3)nc12 (single isomer, unassigned) [Example 35, 2-((1-(6-fluoro-3-methyl-4-oxo-2-(4-(2,2,2-trifluoroethyl)piperazin-1-yl)-3,4-dihydroquinazolin-8-yl)ethyl)amino)benzoic acid]
1 to 500 nM | 2000 to 15000 nM | 1 to 1000 nM | > 15000 nM | 61% | 1740 ng·h/mL | 8.7 mL/min/kg | 10700 ng·h/mL |  |  | Cc1cc(C(C)Nc2ccc(F)cc2C(=O)O)c2nc(N3CCC(C)(C)CC3)n(C)c(=O)c2c1 (single isomer, unassigned) [Example 29, 2-((1-(2-(4,4-dimethylpiperidin-1-yl)-3,6-dimethyl-4-oxo-3,4-dihydroquinazolin-8-yl)ethyl)amino)-5-fluorobenzoic acid]
1 to 500 nM | 2000 to 15000 nM | 1 to 1000 nM | > 15000 nM |  |  |  |  |  |  | CC(Nc1ccc(F)cc1C(=O)O)c1cc(Cl)cc2c(=O)n(C)c(N3CCN(CC(F)(F)F)CC3)nc12 (single isomer, unassigned) [Example 24, 2-((1-(6-chloro-3-methyl-4-oxo-2-(4-(2,2,2-trifluoroethyl)piperazin-1-yl)-3,4-dihydroquinazolin-8-yl)ethyl)amino)-5-fluorobenzoic acid]
500 to 2000 nM |  | 1 to 1000 nM |  |  |  |  |  | 2000 to 15000 nM | > 15000 nM | Cc1cc(C(C)Nc2ccccc2C(=O)O)c2nc(NC[C@H](C)c3ccccc3)n(C)c(=O)c2c1 (single isomer, unassigned) [Example 46]
> 15000 nM |  | > 15000 nM |  |  |  |  |  | > 15000 nM | > 15000 nM | COc1ccc2c(c1)CN(c1nc3c(C(C)Nc4ccccc4C(=O)O)cc(C)cc3c(=O)n1C)C2 (single isomer, unassigned) [Example 8, 2-((1-(2-(5-methoxyisoindolin-2-yl)-3,6-dimethyl-4-oxo-3,4-dihydroquinazolin-8-yl)ethyl)amino)benzoic acid]
500 to 2000 nM |  | 5000 to 15000 nM | > 15000 nM |  |  |  |  | > 15000 nM |  | Cc1cc(C(C)Nc2ccccc2C(=O)O)c2nc(NC[C@@H](C)c3ccccc3)n(C)c(=O)c2c1 (single isomer, unassigned) [Example 47]
2000 to 15000 nM |  | > 15000 nM |  |  |  |  |  | > 15000 nM | > 15000 nM | Cc1cc(C(C)Nc2ccccc2C(=O)O)c2nc(N3CCC(C)(C)CC3)n(C3CC3)c(=O)c2c1 (single isomer, unassigned) [Example 50, 2-((1-(3-cyclopropyl-2-(4,4-dimethylpiperidin-1-yl)-6-methyl-4-oxo-3,4-dihydroquinazolin-8-yl)ethyl)amino)benzoic acid]

Compound | EC50 [1] | EC50 ([2]; Homo sapiens, SK-BR-3, 72 h) | IC50 [3] | IC50 ([4]; Homo sapiens, SK-BR-3, 6 h) | PK-Mouse: PO F [5] | AUC(0-t) [5, 6] | clearance [5, 7] | AUC(0-t) [5, 8] | EC50 [2] | IC50 ([4]; 6 hour)
Cc1cc(C(C)Nc2ccccc2C(=O)O)c2nc(OCC(C)C)n(C)c(=O)c2c1 (single isomer, unassigned) [Example 11, 2-((1-(2-isobutoxy-3,6-dimethyl-4-oxo-3,4-dihydroquinazolin-8-yl)ethyl)amino)benzoic acid] | 500 to 2000 nM | > 15000 nM | 1000 to 5000 nM | > 15000 nM |  |  |  |  |  | 
